Measured values reported in patent publication US9540377B2, “2,6,7,8 substituted purines as HDM2 inhibitors” (Merck Sharp & Dohme Corp., priority 2013, dated 2017).

Target: HDM2 (truncated, residues 17 to 125, containing p53 binding surface) (Homo sapiens (Human), UniProt Q00987)
Assay: HDM2 FRET assay (inhibition of binding of FITC labeled p53-site peptide to HDM2)
Source text: IC50 DETERMINATIONS: Dose-response curves were plotted from the inhibition data, from 10 point serial dilutions of inhibitory compounds. Concentration of compound was plotted against em520/Cem495 ratio signal. To generate IC50 values, the dose-response curves were fitted to a standard sigmoidal curve and IC50 values were derived by nonlinear regression analysis.

Sequence of HDM2 (truncated, residues 17 to 125, containing p53 binding surface) (Q00987 17-125): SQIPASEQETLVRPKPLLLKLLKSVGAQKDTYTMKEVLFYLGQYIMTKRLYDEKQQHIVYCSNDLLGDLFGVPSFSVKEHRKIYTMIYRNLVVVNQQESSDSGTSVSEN

Compound	IC50 (Table 16)	IC50 (Table 23)	further results
COC(C)(C)C1CCCN1c1nc2nc(-c3noc(=O)[nH]3)nc(-c3cncc(Cl)c3)c2n1C[C@H]1CC[C@H](C)CC1 (single isomer, unassigned) [Example 16.73, 3-{6-(5-chloropyridin-3-yl)-8-[2-(1-methoxy-1-methylethyl)pyrrolidin-1-yl]-7-[(trans-4-methylcyclohexyl)methyl]-7H-purin-2-yl}-1,2,4-oxadiazol-5(4H)-one]	1.97 nM	–	–
C[C@H]1CC[C@H](Cn2c(N3CCOC4CCCCC43)nc3nc(-c4noc(=O)[nH]4)nc(-c4cccc(Cl)c4)c32)CC1 (single isomer, unassigned) [Example 16.77, 3-(6-(3-chlorophenyl)-7-[(trans-4-methylcyclohexyl)methyl]-8-(octahydro-4H-1,4-benzoxazin-4-yl)-7H-purin-2-yl]-1,2,4-oxadiazol-5(4H)-one]	29.7 nM	–	–
C[C@H]1CC[C@H](Cn2c(N3CCOC4CCCCC43)nc3nc(-c4noc(=O)[nH]4)nc(-c4cccc(Cl)c4)c32)CC1 (single isomer, unassigned) [Example 16.78, 3-(6-(3-chlorophenyl)-7-[(trans-4-methylcyclohexyl)methyl]-8-(octahydro-4H-1,4-benzoxazin-4-yl)-7H-purin-2-yl]-1,2,4-oxadiazol-5(4H)-one]	1.4 nM	–	–
C[C@H]1CC[C@H](Cn2c(N3CCCC4COCCC43)nc3nc(-c4noc(=O)[nH]4)nc(-c4cccc(Cl)c4)c32)CC1 (single isomer, unassigned) [Example 16.119, 3-{6-[3-chlorophenyl)-8-(hexahydro-2H-pyrano[4,3-b]pyridin-1(5H)-yl)-7-[(trans-4-methylcyclohexyl)methyl]-7H-purin-2-yl}-1,2,4-oxadiazol-5(4H)-one]	60.9 nM	–	–
C[C@H]1CC[C@H](Cn2c(N3CCCC4COCCC43)nc3nc(-c4n[nH]c(=O)o4)nc(-c4cncc(Cl)c4)c32)CC1 (single isomer, unassigned) [Example 16.122, 5-{6-(5-chloropyridin-3-yl)-8-(hexahydro-2H-pyrano[4,3-b]pyridin-1(5H)-yl)-7-[(trans-4-methylcyclohexyl)methyl]-7H-purin-2-yl}-1,3,4-oxadiazol-2(3H)-one]	203 nM	–	–
C[C@H]1CC[C@H](Cn2c(N3CCCC4COCCC43)nc3nc(-c4n[nH]c(=O)o4)nc(-c4cncc(Cl)c4)c32)CC1 (single isomer, unassigned) [Example 16.123, 5-{6-(5-chloropyridin-3-yl)-8-(hexahydro-2H-pyrano[4,3-b]pyridin-1(5H)-yl)-7-[(trans-4-methylcyclohexyl)methyl]-7H-purin-2-yl}-1,3,4-oxadiazol-2(3H)-one]	59.1 nM	–	–
C[C@H]1CC[C@H](Cn2c(N3CCCC4COCCC43)nc3nc(-c4n[nH]c(=O)o4)nc(-c4cccc(Cl)c4)c32)CC1 (single isomer, unassigned) [Example 16.124, 5-{6-(3-chlorophenyl)-8-(hexahydro-2H-pyrano[4,3-b]pyridin-1(5H)-yl)-7-[(trans-4-methylcyclohexyl)methyl]-7H-purin-2-yl}-1,3,4-oxadiazol-2(3H)-one]	263 nM	–	–
C[C@H]1CC[C@H](Cn2c(N3CCCC4COCCC43)nc3nc(-c4n[nH]c(=O)o4)nc(-c4cccc(Cl)c4)c32)CC1 (single isomer, unassigned) [Example 16.125, 5-{6-(3-chlorophenyl)-8-(hexahydro-2H-pyrano[4,3-b]pyridin-1(5H)-yl)-7-[(trans-4-methylcyclohexyl)methyl]-7H-purin-2-yl}-1,3,4-oxadiazol-2(3H)-one]	56.7 nM	–	–
CC([C@H]1CC[C@H](C)CC1)n1c(N2CCOC3CCCC32)nc2nc(-c3noc(=O)[nH]3)nc(-c3cccc(Cl)c3)c21 (single isomer, unassigned) [Example 18.37, 3-{6-(3-chlorophenyl)-8-(hexahydrocyclopenta[b][1,4]oxazin-4(4aH)-yl)-7-[1-(trans-4-methylcyclohexyl)ethyl]-7H-purin-2-yl}-1,2,4-oxadiazol-5(4H)-one]	–	–	IC50 (Table 18): 2.21 nM
CC([C@H]1CC[C@H](C)CC1)n1c(N2CCOC3CCCC32)nc2nc(-c3n[nH]c(=O)o3)nc(-c3cccc(Cl)c3)c21 (single isomer, unassigned) [Example 18.39, 5-{6-(3-chlorophenyl)-8-(hexahydrocyclopenta[b][1,4]oxazin-4(4aH)-yl)-7-[1-(trans-4-methylcyclohexyl)ethyl]-7H-purin-2-yl}-1,3,4-oxadiazol-2(3H)-one]	–	–	IC50 (Table 18): 3.73 nM
CC([C@H]1CC[C@H](C)CC1)n1c(N2CCOC3CCCC32)nc2nc(-c3noc(=O)[nH]3)nc(-c3cccc(Cl)c3)c21 (single isomer, unassigned) [Example 18.40, 3-{6-(3-chlorophenyl)-8-(hexahydrocyclopenta[b][1,4]oxazin-4(4aH)-yl)-7-[1-(trans-4-methylcyclohexyl)ethyl]-7H-purin-2-yl}-1,2,4-oxadiazol-5(4H)-one]	–	–	IC50 (Table 18): 7.86 nM
CC([C@H]1CC[C@H](C)CC1)n1c(N2CCOC3CCCC32)nc2nc(-c3n[nH]c(=O)o3)nc(-c3cccc(Cl)c3)c21 (single isomer, unassigned) [Example 18.43, 5-{6-(3-chlorophenyl)-8-(hexahydrocyclopenta[b][1,4]oxazin-4(4aH)-yl)-7-[1-(trans-4-methylcyclohexyl)ethyl]-7H-purin-2-yl}-1,3,4-oxadiazol-2(3H)-one]	–	–	IC50 (Table 18): 14 nM
CC([C@H]1CC[C@H](C)CC1)n1c(N2CCOC3CCCC32)nc2nc(-c3noc(=O)[nH]3)nc(-c3cncc(Cl)c3)c21 (single isomer, unassigned) [Example 18.52, 3-{6-(5-chloropyridin-3-yl)-8-(hexahydrocyclopenta[b][1,4]oxazin-4(4aH)-yl)-7-[1-(trans-4-methylcyclohexyl)ethyl]-7H-purin-2-yl}-1,2,4-oxadiazol-5(4H)-one]	–	–	IC50 (Table 18): 5.44 nM
CC([C@H]1CC[C@H](C)CC1)n1c(N2CCOC3CCCC32)nc2nc(-c3noc(=O)[nH]3)nc(-c3cncc(Cl)c3)c21 (single isomer, unassigned) [Example 18.53, 3-{6-(5-chloropyridin-3-yl)-8-(hexahydrocyclopenta[b][1,4]oxazin-4(4aH)-yl)-7-[1-(trans-4-methylcyclohexyl)ethyl]-7H-purin-2-yl}-1,2,4-oxadiazol-5(4H)-one]	–	–	IC50 (Table 18): 7.36 nM
COc1ccccc1C(C)(F)c1nc2nc(-c3noc(=O)[nH]3)nc(-c3cncc(Cl)c3)c2n1C[C@H]1CC[C@H](C)CC1 (single isomer, unassigned) [Example 23.26, 3-{6-(5-chloropyridin-3-yl)-8-[1-fluoro-1-(2-methoxyphenyl)ethyl]-7-[(trans-4-methylcyclohexyl)methyl]-7H-purin-2-yl}-1,2,4-oxadiazol-5(4H)-one]	–	5.37 nM	–
COc1ccccc1C(C)(F)c1nc2nc(-c3noc(=O)[nH]3)nc(-c3cncc(Cl)c3)c2n1C[C@H]1CC[C@H](C)CC1 (single isomer, unassigned) [Example 23.27, 3-{6-(5-chloropyridin-3-yl)-8-[1-fluoro-1-(2-methoxyphenyl)ethyl]-7-[(trans-4-methylcyclohexyl)methyl]-7H-purin-2-yl}-1,2,4-oxadiazol-5(4H)-one]	–	1.62 nM	–
CC(F)(c1ccccn1)c1nc2nc(-c3noc(=O)[nH]3)nc(-c3cccc(Cl)c3)c2n1C[C@H]1CC[C@H](C)CC1 (single isomer, unassigned) [Example 23.30, 3-{6-(3-chlorophenyl)-8-(1-fluoro-1-pyridin-2-ylethyl)-7-[(trans-4-methylcyclohexyl)methyl]-7H-purin-2-yl}-1,2,4-oxadiazol-5(4H)-one]	–	6.7 nM	–
CC(F)(c1ccccn1)c1nc2nc(-c3noc(=O)[nH]3)nc(-c3cccc(Cl)c3)c2n1C[C@H]1CC[C@H](C)CC1 (single isomer, unassigned) [Example 23.31, 3-{6-(3-chlorophenyl)-8-(1-fluoro-1-pyridin-2-ylethyl)-7-[(trans-4-methylcyclohexyl)methyl]-7H-purin-2-yl}-1,2,4-oxadiazol-5(4H)-one]	–	3.73 nM	–
CC(F)(c1ccccc1F)c1nc2nc(-c3n[nH]c(=O)o3)nc(-c3cncc(Cl)c3)c2n1C[C@H]1CC[C@H](C)CC1 (single isomer, unassigned) [Example 23.32, 5-{6-(5-chloropyridin-3-yl)-8-[1-fluoro-1-(2-fluorophenyl)ethyl]-7-[(trans-4-methylcyclohexyl)methyl]-7H-purin-2-yl}-1,3,4-oxadiazol-2(3H)-one]	–	16 nM	–
CC(F)(c1ccccc1F)c1nc2nc(-c3n[nH]c(=O)o3)nc(-c3cncc(Cl)c3)c2n1C[C@H]1CC[C@H](C)CC1 (single isomer, unassigned) [Example 23.33, 5-{6-(5-chloropyridin-3-yl)-8-[1-fluoro-1-(2-fluorophenyl)ethyl]-7-[{trans-4-methylcyclohexyl)methyl]-7H-purin-2-yl}-1,3,4-oxadiazol-2(3H)-one]	–	0.453 nM	–
CC(F)(c1ccccc1F)c1nc2nc(-c3noc(=O)[nH]3)nc(-c3cncc(Cl)c3)c2n1C[C@H]1CC[C@H](C)CC1 (single isomer, unassigned) [Example 23.34, 3-{6-(5-chloropyridin-3-yl)-8-[1-fluoro-1-(2-fluorophenyl)ethyl]-7-[(trans-4-methylcyclohexyl)methyl]-7H-purin-2-yl}-1,2,4-oxadiazol-5(4H)-one]	–	9.3 nM	–
CC(F)(c1ccccc1F)c1nc2nc(-c3noc(=O)[nH]3)nc(-c3cncc(Cl)c3)c2n1C[C@H]1CC[C@H](C)CC1 (single isomer, unassigned) [Example 23.35, 3-{6-(5-chloropyridin-3-yl)-8-[1-fluoro-1-(2-fluorophenyl)ethyl]-7-[(trans-4-methylcyclohexyl)methyl] 7H-purin-2-yl}-1,2,4-oxadiazol-5(4H)-one]	–	0.424 nM	–
CC(F)(c1ccccn1)c1nc2nc(-c3n[nH]c(=O)o3)nc(-c3cccc(Cl)c3)c2n1C[C@H]1CC[C@H](C)CC1 (single isomer, unassigned) [Example 23.36, 5-{6-(3-chlorophenyl)-8-[1-fluoro-1-(pyridin-2-yl)ethyl]-7-[(trans-4-methylcyclohexyl)methyl]-7H-purin-2-yl}-1,3,4-oxadiazol-2(3H)-one]	–	9.68 nM	–
